Data from patent US8741932B2, “Imidazopyridine derivatives” (Piramal Enterprises Limited, priority 2009, dated 2014).

Columns and labels:
IL-6 = assay: Human monocyte assay, LPS-stimulated IL-6; assay type: cell-based; settings: human monocytes, 1 μg/ml LPS, 5 hours
Outline: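 Adherent human PBMC-derived monocytes (2×10^4/well) were cultured 48 h, preincubated 30 min with compound or 0.5% DMSO, then stimulated with 1 μg/ml E. coli LPS for 5 h at 37° C. TNF-α and IL-6 in supernatants were measured by ELISA.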

STAT3 = STAT3 bioassay (Hela Stat3-luc, luciferase); assay type: cell-based; settings: Oncostatin M induction
Experimental: Cells were seeded (Hela Stat3-luc, ATCC P/N 30-2002) in a white 96 well plate (Nunc cat.no.136101) at a density of 20,000cells/well in 179 μl volume per well (DMEM from Sigma containing 10% FCS). The plate was incubated for 24 hours at 37° C./5% CO2. The cells (wells in triplicates) were then treated with 1 μl/well of 200× stock of the desired compound concentration prepared in 100% DMSO. Curcumin was used as a standard or positive control, added 10 μg/ml in triplicate. DMSO was used as medium control (1 μl/well added in triplicates). The plate was incubated at 37° C./5% CO2 for 1 hour. 20 μl/well Oncostatin M (Oncostatin M, Human, Recombinant, E. coli, Cat.No. 496260, 10 μg from Calbiochem) was added to treated wells, induction control (in triplicate) (1000 ng/ml stock prepared in serum free medium to get final concentration 100 ng/ml). The plate was then incubated for 7-8 hours at 37° C./5% CO2 for induction. A typical assay would consist of triplicate of medium control, triplicate of induction control, triplicate of positive/standard control and test compounds at desired concentration in triplicates. For termination Luciferase assay protocol was followed where the culture medium was removed from all the wells.
200 μl well of PBS was added to remove traces of medium and compound. The PBS was discarded. 40 μl/well of 1× lysis buffer was added to all the wells. The plate was incubated at RT for 20 minutes with intermittent shaking. 100 μl/well of LAB reagent was added to all the wells in dark. {LAB reagent for 1 plate=8 ml Luciferase assay buffer (LAB)+1 ml Coenzyme A (Sigma cat no. C3019) (2.1 mg/ml stock in LAB)+530 μL of ATP (Sigma cat.no.A2383) (5.85 mg/ml stock in LAB)+1 ml luciferin reagent (Promega cat no.245355) (2 mg/ml stock in LAB, protect from light)}.
The luminescence was immediately read on polar star. The values were expressed as percentage inhibition, in terms of treated values to that STAT3 (induction control). IC50 values were calculated from graphs using these percentages.

PI3Kα kinase = molecular target: T1, PI3Kα kinase (Homo sapiens, UniProt P42336); assay: Kinase assay (PI3Kα); assay type: biochemical; settings: read-out: IC50 (μM) for PI3K inhibition
T1 construct: purchased Millipore, USA
T1 sequence (P42336 whole entry): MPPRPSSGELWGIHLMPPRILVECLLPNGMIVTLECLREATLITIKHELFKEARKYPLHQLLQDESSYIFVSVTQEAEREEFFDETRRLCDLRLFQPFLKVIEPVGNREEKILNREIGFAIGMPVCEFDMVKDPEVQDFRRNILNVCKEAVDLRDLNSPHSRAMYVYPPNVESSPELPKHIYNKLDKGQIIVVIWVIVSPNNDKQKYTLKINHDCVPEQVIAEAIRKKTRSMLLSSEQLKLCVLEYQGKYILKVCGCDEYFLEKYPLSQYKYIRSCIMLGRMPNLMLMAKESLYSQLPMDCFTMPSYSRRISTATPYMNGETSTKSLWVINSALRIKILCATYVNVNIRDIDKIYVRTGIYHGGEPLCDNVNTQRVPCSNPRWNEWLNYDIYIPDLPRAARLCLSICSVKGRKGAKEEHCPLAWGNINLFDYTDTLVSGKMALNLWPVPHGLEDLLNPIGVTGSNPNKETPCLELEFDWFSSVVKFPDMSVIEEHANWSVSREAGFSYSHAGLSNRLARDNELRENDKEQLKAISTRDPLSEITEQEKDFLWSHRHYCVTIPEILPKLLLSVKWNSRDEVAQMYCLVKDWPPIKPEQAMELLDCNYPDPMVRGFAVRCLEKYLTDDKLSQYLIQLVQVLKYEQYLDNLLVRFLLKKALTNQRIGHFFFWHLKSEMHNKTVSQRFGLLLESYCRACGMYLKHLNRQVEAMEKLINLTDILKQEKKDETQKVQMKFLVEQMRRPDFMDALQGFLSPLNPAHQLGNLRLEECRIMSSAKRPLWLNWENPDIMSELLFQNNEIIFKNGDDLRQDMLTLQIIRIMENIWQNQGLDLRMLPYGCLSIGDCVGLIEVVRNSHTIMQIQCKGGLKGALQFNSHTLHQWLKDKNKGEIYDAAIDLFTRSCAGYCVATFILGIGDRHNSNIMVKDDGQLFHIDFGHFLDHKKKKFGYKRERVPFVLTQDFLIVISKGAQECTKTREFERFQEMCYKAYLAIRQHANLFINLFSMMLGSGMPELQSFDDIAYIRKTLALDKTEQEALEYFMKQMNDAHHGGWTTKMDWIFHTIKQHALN
T1 sequence (P27986 whole entry partner): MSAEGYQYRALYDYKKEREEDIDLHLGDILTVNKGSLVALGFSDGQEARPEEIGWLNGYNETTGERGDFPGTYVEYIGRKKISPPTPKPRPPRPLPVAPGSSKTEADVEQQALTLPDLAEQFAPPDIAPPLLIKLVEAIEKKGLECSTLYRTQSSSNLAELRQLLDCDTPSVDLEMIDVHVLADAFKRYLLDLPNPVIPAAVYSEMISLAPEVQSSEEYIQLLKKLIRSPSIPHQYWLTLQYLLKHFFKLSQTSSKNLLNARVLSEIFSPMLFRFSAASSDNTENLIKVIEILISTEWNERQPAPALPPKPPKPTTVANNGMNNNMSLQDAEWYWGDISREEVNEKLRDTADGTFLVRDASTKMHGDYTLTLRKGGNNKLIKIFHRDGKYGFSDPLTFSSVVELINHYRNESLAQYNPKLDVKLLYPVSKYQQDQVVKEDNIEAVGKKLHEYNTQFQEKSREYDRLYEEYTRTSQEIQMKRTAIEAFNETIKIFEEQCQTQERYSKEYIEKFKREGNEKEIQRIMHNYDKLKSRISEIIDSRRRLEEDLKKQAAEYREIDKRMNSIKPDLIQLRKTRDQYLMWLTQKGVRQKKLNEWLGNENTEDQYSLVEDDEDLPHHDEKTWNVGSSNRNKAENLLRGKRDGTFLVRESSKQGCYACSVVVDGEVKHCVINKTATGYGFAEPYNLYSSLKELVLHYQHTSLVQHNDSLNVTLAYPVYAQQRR
Experimental: The kinase reaction was carried out in a 25 μL volume in a 1.5 mL microcentrifuge tube. The reaction mixture consisted of kinase buffer (10 mM Hepes, pH 7.5, 50 mM MgCl2), 20 ng PI3Kα kinase (Millipore, USA), 12.5 μg phosphotidylinositol (PI), 10 μM ATP and 1 μCi ^32γ P […]. […] The reactions were incubated at 30° C. for 20 minutes and were terminated by adding 1:1 mixture of MeOH and CHCl3. The tube contents were mixed on a vortex mixer and centrifuged at 10000 rpm for 2 minutes. 10 μL of the organic (lower) phase was spotted on to a TLC plate (silica, mobile phase: n-propanol and 2 M glacial acetic acid in 65:35 ratio). The plates were dried and exposed to an X-ray film. The bands appearing as a result of ^32γ P incorporation in PI were quantitated using the Quantityl)ne (BioRad, USA) densitometry program. PI-103 (Calbiochem, USA) was used as a standard.

H460 = assay: Cytotoxicity assay (propidium iodide), H460; assay type: cell-based; settings: H460 (C1b, lung), 48 hours
Experimental: (§1) Cells from cell lines as mentioned in the table given below were seeded at a density of 3000 cells/well in a white opaque 96-well plate. Following incubation at 37° C./5% CO2 for a period of 18-24 hours, the cells were treated with various concentrations (stock solution was prepared in DMSO and subsequent dilutions were made in media as per ATCC guidelines) of the representative compounds of present invention (refer table 3) for a period of 48 hours. At the end of treatment, the spent culture medium was discarded, the cells were washed with 1×PBS and 200 μl of 7 μg/ml propidium iodide was added to each well. The plates were frozen at −70° C. for at least 24 hours. For analysis, the plates were brought to RT, allowed to thaw and were read in PolarStar fluorimeter with the fluorescence setting. The percentage of viable cells in the non treated set of wells was considered to be 100 and the percentage viability following treatment was calculated accordingly. IC50 values were calculated from graphs plotted using these percentages.

A549 = assay: Cytotoxicity assay (propidium iodide), A549; assay type: cell-based; settings: A549 (C1a, lung), 48 hours
A2780 = assay: Cytotoxicity assay (propidium iodide), A2780; assay type: cell-based; settings: for inhibition at 1 µM / % inhibition at 1 μM: A2780 (C3a)
PC3 = assay: Cytotoxicity assay (propidium iodide), PC3; settings: for inhibition at 1 µM: Homo sapiens, PC-3, read-out: % inhibition at 1 μM; for % inhibition at 1 μM: PC3 (C2a)
Experimental: as §1

Compound | IC50 (IL-6; Monocyte) [µM] | IC50 (H460; Homo sapiens, NCI-H460) [µM] | IC50 (A549; Homo sapiens) [µM] | inhibition at 1 µM (A2780; Homo sapiens) [%] | inhibition at 1 µM (PC3) [%] | also measured
Cc1ccccc1S(=O)(=O)N(C)/N=C/c1cnc2ccc(-c3cccnc3)cn12 [Example 53, (E)-N, 2-dimethyl-N′-((6-(pyridin-3-yl)imidazo[1,2-a]pyridin-3-yl)methylene)benzenesulfonohydrazide] | 0.001 to 5 | 0.01 to 5 | 0.01 to 5 |  |  | 
COc1ccc(Br)cc1S(=O)(=O)N(C)/N=C/c1cnc2ccc(-c3cccnc3F)cn12 [Example 91, (E)-5-bromo-N′-((6-(2-fluoropyridin-3-yl)imidazo[1,2-a]pyridin-3-yl)methylene)-2-methoxy-N-methylbenzenesulfonohydrazide] |  |  |  | > 50 | > 50 | 
Cc1ccc(F)cc1S(=O)(=O)N(C)/N=C/c1cnc2c(C)cc(-c3cccnc3)cn12 [Example 100, (E)-5-Fluoro-N,2-dimethyl-N′-((8-methyl-6-(pyridin-3-yl)imidazo[1,2-a]pyridin-3-yl)methylene)benzenesulfonohydrazide] |  | 0.01 to 5 | 0.01 to 5 |  |  | IC50 (A2780; Homo sapiens, A2780 (C3a, ovarian), 48 hours): 0.01 to 5 µM; IC50 (PI3Kα kinase): 0.01 to 0.5 µM
Cc1ccc(NC(=O)N(C)/N=C/c2cnc3ccc(-c4cccnc4)cn23)cc1 [Example 142, (E)-1-methyl-2-((6-(pyridin-3-yl)imidazo[1,2-a]pyridin-3-yl)methylene)-N-p-tolylhydrazinecarboxamide] | ≥ 5 |  |  | 30 to 50 | 30 to 50 | 
Cc1ccc(F)c(NC(=O)N(C)/N=C/c2cnc3ccc(-c4cccnc4)cn23)c1 [Example 143, (E)-N-(2-fluoro-5-methylphenyl)-1-methyl-2-((6-(pyridin-3-yl)imidazo[1,2-a]pyridin-3-yl)methylene)hydrazinecarboxamide] | 0.001 to 5 |  |  | 30 to 50 | 30 to 50 | 
Cc1ccc(F)c(NC(=O)N(C)N=Cc2cnc3ccc(Br)cn23)c1 [Example 146] |  |  |  |  |  | % inhibition at 1 μM (A2780): ++ (% Inhibition >50%); IC50 (IL-6): ≥ 5 µM; % inhibition at 1 μM (PC3): ++ (% Inhibition >50%)
CN(N=Cc1cnc2ccc(Br)cn12)C(=S)Nc1ccc(C(F)(F)F)cc1 [Example 152, 2-((6-bromoimidazo[1,2-a]pyridin-3-yl)methylene)-1-methyl-N-(4-(trifluoromethyl)phenyl) hydrazinecarbothioamide] |  |  |  |  |  | % inhibition at 1 μM (A2780): + (50% ≧ % Inhibition ≧ 30%); IC50 (IL-6): 0.001 to 5 µM; % inhibition at 1 μM (PC3): + (50% ≧ % Inhibition ≧ 30%)
(E)-5-fluoro-N′-((6-(5-fluoropyridin-3-yl) imidazo[1,2-a]pyridin-3-yl)methylene)-N, 2-dimethylbenzenesulfonohydrazide [Example 132] |  |  |  |  |  | IC50 (H460): 0.01 to 5 µM; IC50 (A549): 0.01 to 5 µM
N-methyl-1-phenyl-N′-((6-pyridin-3-yl) imidazo[1,2-a]pyridine-3-yl) methylene)benzenesulfonohydrazide [Example 28] |  |  |  |  |  | IC50 (IL-6): 0.001 to 5 µM; IC50 (STAT3): > 10 µM

Continued, in another order:

IC50 (IL-6; Monocyte) [µM] | Compound | IC50 (H460; Homo sapiens, NCI-H460) [µM] | IC50 (A549; Homo sapiens) [µM] | inhibition at 1 µM (A2780; Homo sapiens) [%] | inhibition at 1 µM (PC3) [%] | also measured
≥ 5 | Cc1cc(S(=O)(=O)N(C)N=Cc2cnc3ccc(-c4cccnc4)cn23)ccc1Br [Example 22, 4-Bromo-N, 3-dimethyl-N′-((6-(pyridine-3-yl)imidazo[1,2-a]pyridine-3-yl)methylene) benzenesulfonohydrazide] |  |  |  |  | IC50 (STAT3; Homo sapiens): 0.1 to 5 µM; IC50 (PI3Kα kinase): 0.01 to 0.5 µM
0.001 to 5 | CN(/N=C/c1cnc2ccc(-c3cccnc3)cn12)S(=O)(=O)c1ccccc1OC(F)(F)F [Example 54, (E)-N-methyl-N′-((6-(pyridin-3-yl)imidazo[1,2-a]pyridin-3-yl)methylene)-2-(trifluoromethoxy)benzenesulfonohydrazide] | 0.01 to 5 | 0.01 to 5 |  |  | 
0.001 to 5 | CN(/N=C/c1cnc2ccc(-c3cccnc3)cn12)S(=O)(=O)c1cc(C(F)(F)F)ccc1Cl [Example 65, (E)-2-chloro-N-methyl-N′-((6-(pyridin-3-yl)imidazo[1,2-a]pyridin-3-yl)methylene)-5-(trifluoromethyl)benzenesulfonohydrazide] | 0.01 to 5 | 0.01 to 5 |  |  | 
0.001 to 5 | COc1ccc(F)cc1S(=O)(=O)N(C)/N=C/c1cnc2ccc(-c3cccnc3F)cn12 [Example 88, (E)-5-Fluoro-N′-((6-(2-fluoropyridin-3-yl)imidazo[1,2-a]pyridin-3-yl)methylene)-2-methoxy-N-methylbenzenesulfonohydrazide] | 0.01 to 5 | 0.01 to 5 |  |  | 
≥ 5 | Cc1ccc(F)cc1NC(=O)N(C)/N=C/c1cnc2ccc(-c3cccnc3)cn12 [Example 144, (E)-N-(5-fluoro-2-methylphenyl)-1-methyl-2-((6-(pyridin-3-yl)imidazo[1,2-a]pyridin-3-yl)methylene)hydrazinecarboxamide] |  |  | 30 to 50 | 30 to 50 | 
≥ 5 | CN(/N=C/c1cnc2ccc(-c3cccnc3)cn12)C(=S)Nc1ccc(C#N)cc1 [Example 149, (E)-N-(4-cyanophenyl)-1-methyl-2-((6-(pyridin-3-yl)imidazo[1,2-a]pyridin-3-yl)methylene)hydrazinecarbothioamide] |  |  | 30 to 50 | 30 to 50 | 
≥ 5 | COc1ccc(NC(=S)N(C)/N=C/c2cnc3ccc(-c4cccnc4)cn23)cc1 [Example 150, (E)-N-(4-methoxyphenyl)-1-methyl-2-((6-(pyridin-3-yl)imidazo[1,2-a]pyridin-3-yl)methylene)hydrazinecarbothioamide] |  |  | 30 to 50 | 30 to 50 | 
